Measured values from patent publication US4668703A, “γ-allenyl-γ-aminobutyric acids” (Syntex (U.S.A.) Inc., priority 1985, dated 1987).
Where a name gives a salt, the structure may show the parent alone. Read-outs that look alike come from different tables or passages of the source.

Assays:
[1] = tested on: γ-aminobutyric acid transaminase; conditions: cited from earlier work
[2] = tested on: brain level of γ-aminobutyric acid; conditions: in animals; cited from earlier work
[3] = tested on: C. elegans; experiment: C. elegans assay; conditions: Caenorhabditis elegans, read-out: % Active
Description: The compounds tested were dissolved in DMSO at 10 mg/ml to give sample stock solutions. During assay, 1 ml M9 buffer (6 g Na2 HPO4, 3 g KH2 PO4, 5 g NaCl, and 0.25 g MgSO4 H2 O per liter) was placed in each of the 24-wells in a tissue culture plate. 10 μl of sample stock solution was added respectively to each of 23 wells. The remaining well served as drug-free control.
At time 0, 1 drop of C. elegans suspension was dropped into each well (25-50 adults). At 1 hour, the number of active worms versus total in each well was recorded.

[4] = Toxicity test (acute, oral, mouse); format: in vivo; conditions: mouse, in vivo, po; male mice, CMC vehicle, observed for 21 days
Description: (§1) 4-amino-5,6-heptadienoic acid prepared in CMC vehicle was administered once daily to groups of 6 male mice at doses of 0, 62.5, 125, 250 and 500 mg/Kg. […] Therefore, the LD50 (acute, oral, mouse) for 4-amino-5,6-heptadienoic acid is greater than 500 mg/Kg.

[5] = tested on: mouse; experiment: Toxicity test (acute, oral, mouse); format: in vivo; conditions: male mice, once daily, 62.5, 125, 250 and 500 mg/Kg, observed for 21 days
Description: as §1

[6] = tested on: N. Brasiliensis; experiment: N. Brasiliensis assay, third larval stage; conditions: 50 μg/ml, 37° C., control 100%, read-out: Percent Viable
Description: The compound was tested at 50 μg/ml against the third larval stage of N. Brasiliensis at approximately 50 L3 /well; this mixture was incubated at 37° C. for total of 7 days. Activity of the compound was checked on days 1, 4. and 7 post-inoculation.

With `NC(CF)CCC(=O)O` (stereo not shown) [γ-monofluoromethyl-γ-aminobutyric acid] as the molecule, how does the “irreversible inhibitors of γ-aminobutyric acid transaminase” value (from here on “irreversible inhibitors”) [1] read?
Its value is “potent irreversible inhibitors”.

And the “increase of the brain level of γ-aminobutyric acid” value (“increase” below) [2]?
Its value is “significantly increase”.

Which activity at 100 µg/mL ([3]; 1 h) does the source give for `C=C=C(C)C(N)CCC(=O)OCCCCCCCC` (stereo not shown) [Octyl 4-amino-5-methyl-5,6-heptanoate, octyl-4-amino-5-methyl-5,6-heptadienoate para-toluene-sulfonic acid salt] here?
Its activity at 100 µg/mL is 25%.

For `C=CC(N)CCC(=O)O` (stereo not shown) [γ-vinyl-γ-aminobutyric acid], which “irreversible inhibitors” value [1] is on record?
The value was “potent irreversible inhibitors”.

What about the “increase” value [2] of the same molecule?
Its value is “significantly increase”.

For `C=C=CC(N)CCC(=O)O` (stereo not shown) [4-amino-5,6-heptadienoic acid], which LD50 at 504 h [4] is on record?
Its LD50 at 504 h is over 500 mg/kg.

What about the deaths [5] of the same molecule?
Its deaths is “no deaths”.

Which “irreversible inhibitors” value [1] does the source give for `C#CC(N)CCC(=O)O` (stereo not shown) [γ-acetylenic] here?
Its value is “potent irreversible inhibitors”.

And the “increase” value [2]?
Its value is “significantly increase”.

What does the source list for `C=C=CC(N)CCC(=O)OCCCCCCCC` (stereo not shown) [Octyl 4-amino-5,6-heptadienoate para-toluene sulfonic acid salt]?
activity at 100 µg/mL ([3]; active worms versus total at 1 hour, 10 μl of 10 mg/ml DMSO stock added to 1 ml M9 buffer, control 100%): 45%; viability at 50 µg/mL ([6]; 24 h, day 1): 64%; viability at 50 µg/mL ([6]; 96 h, day 4): 0%; viability at 50 µg/mL ([6]; 168 h, day 7): 0%
